According to patent US12338262B2 (Forward Therapeutics, Inc., priority 2022, dated 2025):

biological target: TNF-α (Homo sapiens, UniProt P01375); experiment: TNF-α Induced HEK Blue Cellular Assay; assay type: cell-based; details: HEK Blue TNFα reporter cells, TNF-α 100 pg/ml, 24 hrs at 37° C., secreted alkaline phosphatase (QUANTI-Blue, 620 nm)
Outline: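 HEK Blue TNFα reporter cells (10,000/well, DMEM + 10% FBS) treated with compound ([…] to 0.5 nM final) and stimulated with 100 pg/ml TNF-α for 24 h at 37 °C. Secreted alkaline phosphatase read with QUANTI-Blue at 620 nm; IC50 by 4-parameter logistic fit after background correction to stimulated/unstimulated DMSO controls.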

Chain of TNF-α (P01375 77-233 limits assumed): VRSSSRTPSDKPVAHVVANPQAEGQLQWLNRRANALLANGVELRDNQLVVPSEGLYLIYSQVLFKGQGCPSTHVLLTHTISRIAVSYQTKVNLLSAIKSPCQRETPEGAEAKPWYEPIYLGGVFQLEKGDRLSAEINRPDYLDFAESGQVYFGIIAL

SMILES	IC50 [nM]
Cc1nc2cc(F)c(-c3cnc(P(C)(C)=O)c(F)c3)nc2c(N[C@H](C)c2cc(F)cc(F)c2)c1Cl [Example 128, 3-chloro-N-[(1R)-1-(3,5-difluorophenyl)ethyl]-6-[6-(dimethylphosphoryl)-5-fluoropyridin-3-yl]-7-fluoro-2-methyl-1,5-naphthyridin-4-amine]	10000 to 30000
Cc1nc2cc(F)c(-c3ccc(P(C)(C)=O)nc3)nc2c(N[C@H](C)c2ccc(F)c(F)c2F)c1Cl (single isomer, unassigned) [Example 109]	≤ 100
Cc1nc2ccc(-c3ccc(P(C)(C)=O)nc3)cc2c(N[C@H](C)c2cc(C#N)ccc2F)c1Cl [Example 5, 3-[(1R)-1-({3-chloro-6-[6-(dimethylphosphoryl)pyridin-3-yl]-2-methylquinolin-4-yl}amino)ethyl]-4-fluorobenzonitrile]	≤ 100
Cc1nc2cc(F)c(-c3ccc(P(C)(C)=O)nc3)nc2c(N[C@H](c2ccccc2F)C(F)F)c1Cl [Example 26, (R)-(5-(7-chloro-8-((2,2-difluoro-1-(2-fluorophenyl)ethyl)amino)-3-fluoro-6-methyl-1,5-naphthyridin-2-yl)pyridin-2-yl)dimethylphosphine oxide]	1000 to 10000
CC[C@@H](Nc1c(Cl)c(C)nc2cc(F)c(-c3ccc(P(C)(C)=O)nc3)nc12)c1cc(F)cc(F)c1 [Example 147, 3-chloro-N-[(1R)-1-(3,5-difluorophenyl)propyl]-6-[6-(dimethylphosphoryl)pyridin-3-yl]-7-fluoro-2-methyl-1,5-naphthyridin-4-amine]	1000 to 10000
Cc1nc2cc(F)c(-c3ccc(P(C)(C)=O)nc3)nc2c(NC(c2cccc(F)c2F)C(C)(F)F)c1Cl (centres unmarked) [Example 142, 3-chloro-N-[1-(2,3-difluorophenyl)-2,2-difluoropropyl]-6-[6-(dimethylphosphoryl)pyridin-3-yl]-7-fluoro-2-methyl-1,5-naphthyridin-4-amine]	1000 to 10000
Cc1nc2cc(F)c(-c3ccc(CP(C)(C)=O)nc3)nc2c(N[C@H](C)c2cc(C#N)ccc2F)c1Cl [Example 39, (R)-3-(1-((3-chloro-6-(6-((dimethylphosphoryl)methyl)pyridin-3-yl)-7-fluoro-2-methyl-1,5-naphthyridin-4-yl)amino)ethyl)-4-fluorobenzonitrile]	≤ 1000
Cc1nc2cc(F)c(-c3ccc(P(C)(C)=O)nc3)nc2c(N[C@@H](c2ccccc2F)C(F)(F)F)c1Cl [Example 70, 3-chloro-6-[6-(dimethylphosphoryl)pyridin-3-yl]-7-fluoro-2-methyl-N-[(1S)-2,2,2-trifluoro-1-(2-fluorophenyl)ethyl]-1,5-naphthyridin-4-amine]	≤ 100
CC[C@@H](Nc1c(Cl)c(C)nc2cc(F)c(-c3ccc(P(C)(C)=O)nc3)c(F)c12)c1ncccc1F [Example 74, (R)-(5-(3-chloro-5,7-difluoro-4-((1-(3-fluoropyridin-2-yl)propyl)amino)-2-methylquinolin-6-yl)pyridin-2-yl)dimethylphosphine oxide]	≤ 1000
CC[C@H](Nc1c(Cl)c(C)nc2cc(F)c(-c3ccc(P(C)(C)=O)nc3)nc12)c1ncccc1F [Example 68, (S)-(5-(7-chloro-3-fluoro-8-((1-(3-fluoropyridin-2-yl)propyl)amino)-6-methyl-1,5-naphthyridin-2-yl)pyridin-2-yl)dimethylphosphine oxide]	≤ 100
CC[C@H](Nc1c(Cl)c(C)nc2cc(F)c(-c3cnc(P(C)(C)=O)nc3)nc12)c1cc(C#N)ccc1F [Example 30, 3-[(1S)-1-({3-chloro-6-[2-(dimethylphosphoryl)pyrimidin-5-yl]-7-fluoro-2-methyl-1,5-naphthyridin-4-yl}amino)propyl]-4-fluorobenzonitrile]	≤ 100
Cc1nc2cc(F)c(-c3ccc(P(C)(C)=O)nc3)nc2c(N[C@H](C)c2cccc(C(F)F)c2)c1Cl [Example 92, 3-chloro-N-[(1R)-1-[3-(difluoromethyl)phenyl]ethyl]-6-[6-(dimethylphosphoryl)pyridin-3-yl]-7-fluoro-2-methyl-1,5-naphthyridin-4-amine]	≤ 100
C[C@@H](Nc1c(Cl)cnc2cc(F)c(-c3cnc(P(C)(C)=O)nc3)nc12)c1cc(C#N)ccc1F [Example 14, 3-[(1R)-1-({3-chloro-6-[2-(dimethylphosphoryl)pyrimidin-5-yl]-7-fluoro-1,5-naphthyridin-4-yl}amino)ethyl]-4-fluorobenzonitrile]	≤ 1000
Cc1nc2cc(F)c(-c3cnc(P(C)(C)=O)nc3)nc2c(N[C@H](C)c2ccccc2C(F)(F)F)c1Cl [Example 55, 3-chloro-6-[2-(dimethylphosphoryl)pyrimidin-5-yl]-7-fluoro-2-methyl-N-[(1R)-1-[2-(trifluoromethyl)phenyl]ethyl]-1,5-naphthyridin-4-amine]	10000 to 30000
Cc1nc2cc(F)c(-c3ccc(P(C)(C)=O)nc3)cc2c(N[C@@H](C)c2cncnc2)c1Cl (single isomer, unassigned) [Example 101]	10000 to 30000
Cc1nc2cc(F)c(-c3ccc(P(C)(C)=O)nc3)nc2c(N[C@H](c2cccc(F)c2F)C(F)F)c1Cl [Example 146, (R)-(5-(7-chloro-8-((1-(2,3-difluorophenyl)-2,2-difluoroethyl)amino)-3-fluoro-6-methyl-1,5-naphthyridin-2-yl)pyridin-2-yl)dimethylphosphine oxide]	1000 to 10000
CC[C@@H](Nc1c(Cl)c(C)nc2cc(F)c(-c3ccc(P(C)(C)=O)nc3)nc12)c1ccccn1 [Example 84, 3-chloro-6-[6-(dimethylphosphoryl)pyridin-3-yl]-7-fluoro-2-methyl-N-[(1R)-1-(pyridin-2-yl)propyl]-1,5-naphthyridin-4-amine]	≤ 1000
CC[C@@H](Nc1c(Cl)c(C)nc2cc(F)c(-c3ccc(P(C)(C)=O)nc3)nc12)c1ncccc1F [Example 69, (R)-(5-(7-chloro-3-fluoro-8-((1-(3-fluoropyridin-2-yl)propyl)amino)-6-methyl-1,5-naphthyridin-2-yl)pyridin-2-yl)dimethylphosphine oxide]	≤ 1000
Cc1nc2cc(F)c(-c3ccc(P(C)(C)=O)nc3)nc2c(N[C@H](C)c2cccc(Cl)c2F)c1Cl [Example 78, 3-chloro-N-[(1R)-1-(3-chloro-2-fluorophenyl)ethyl]-6-[6-(dimethylphosphoryl)pyridin-3-yl]-7-fluoro-2-methyl-1,5-naphthyridin-4-amine]	≤ 100
CCP(=O)(CC)c1ncc(-c2nc3c(N[C@H](C)c4cc(C#N)ccc4F)c(Cl)c(C)nc3cc2F)cn1 [Example 28, 3-[(1R)-1-({3-chloro-6-[2-(diethylphosphoryl)pyrimidin-5-yl]-7-fluoro-2-methyl-1,5-naphthyridin-4-yl}amino)ethyl]-4-fluorobenzonitrile]	≤ 100
CC[C@@H](Nc1c(Cl)c(C)nc2cc(F)c(-c3ccc(P(C)(C)=O)nc3)nc12)c1ccccc1 [Example 79, 3-chloro-6-[6-(dimethylphosphoryl)pyridin-3-yl]-7-fluoro-2-methyl-N-[(1R)-1-phenylpropyl]-1,5-naphthyridin-4-amine]	≤ 100
Cc1nc2cc(F)c(-c3cnc(P(C)(C)=O)nc3)nc2c(N[C@@H](c2cc(C#N)ccc2F)C(F)F)c1Cl [Example 36, (S)-3-(1-((3-chloro-6-(2-(dimethylphosphoryl)pyrimidin-5-yl)-7-fluoro-2-methyl-1,5-naphthyridin-4-yl)amino)-2,2-difluoroethyl)-4-fluorobenzonitrile]	≤ 1000
Cc1nc2cc(F)c(-c3ccc(P4(=O)CCOCC4)nc3)nc2c(N[C@H](C)c2cc(C#N)ccc2F)c1Cl [Example 141, 3-[(1R)-1-({3-chloro-7-fluoro-2-methyl-6-[6-(4-oxo-1,4lambda5-oxaphosphinan-4-yl)pyridin-3-yl]-1,5-naphthyridin-4-yl}amino)ethyl]-4-fluorobenzonitrile]	1000 to 10000
Cc1nc2cc(F)c(-c3ccc(P(C)(C)=O)c(F)c3)nc2c(N[C@H](C)c2cccc(Cl)c2F)c1Cl [Example 118, 3-chloro-N-[(1R)-1-(3-chloro-2-fluorophenyl)ethyl]-6-[4-(dimethylphosphoryl)-3-fluorophenyl]-7-fluoro-2-methyl-1,5-naphthyridin-4-amine]	≤ 1000
Cc1nc2cc(F)c(-c3ccc(P(C)(C)=O)nc3)nc2c(N[C@H](C)c2cccc(F)c2F)c1C [Example 133, N-[(1R)-1-(2,3-difluorophenyl)ethyl]-6-[6-(dimethylphosphoryl)pyridin-3-yl]-7-fluoro-2,3-dimethyl-1,5-naphthyridin-4-amine]	≤ 100
Cc1nc2ccc(-c3cnc(P(C)(C)=O)nc3)nc2c(N[C@H](C)c2cc(C#N)ccc2F)c1Cl [Example 41, 3-[(1R)-1-({3-chloro-6-[2-(dimethylphosphoryl)pyrimidin-5-yl]-2-methyl-1,5-naphthyridin-4-yl}amino)ethyl]-4-fluorobenzonitrile]	≤ 1000
Cc1nc2cc(F)c(-c3cnc(P(C)(C)=O)nc3)cc2c(N[C@H](C)c2cccc(F)c2F)c1Cl [Example 65, 3-chloro-N-[(1R)-1-(2,3-difluorophenyl)ethyl]-6-[2-(dimethylphosphoryl)pyrimidin-5-yl]-7-fluoro-2-methylquinolin-4-amine]	≤ 1000
Cc1nc2cc(F)c(-c3ccc(P(C)(C)=O)nc3)nc2c(N[C@@H](C)c2c(F)cccc2F)c1Cl [Example 54, 3-chloro-N-[(1S)-1-(2,6-difluorophenyl)ethyl]-6-[6-(dimethylphosphoryl)pyridin-3-yl]-7-fluoro-2-methyl-1,5-naphthyridin-4-amine]	≤ 1000
Cc1nc2cc(F)c(-c3ccc(P(C)(C)=O)nc3)nc2c(N[C@H](C)c2cc(C3CC3)ccc2F)c1Cl [Example 150, 3-chloro-N-[(1R)-1-(5-cyclopropyl-2-fluorophenyl)ethyl]-6-[6-(dimethylphosphoryl)pyridin-3-yl]-7-fluoro-2-methyl-1,5-naphthyridin-4-amine]	≤ 1000
